# Values quoted from earlier work, collected in patent US7476743B2, “Compounds, compositions, and methods” (Cytokinetics, Inc., priority 2002, dated 2009).
# Tested on: A549 cells
# Conditions: data provided by National Cancer Institute
row,SMILES,GI50 [µM]
1,CC(=O)O[C@H]1C(=O)[C@@]2(C)[C@H]([C@H](OC(=O)c3ccccc3)[C@]3(O)C[C@H](OC(=O)[C@H](O)[C@@H](NC(=O)c4ccccc4)c4ccccc4)C(C)=C1C3(C)C)[C@]1(OC(C)=O)CO[C@@H]1C[C@@H]2O [paclitaxel],0.004
2,COc1cccc2c1C(=O)c1c(O)c3c(c(O)c1C2=O)C[C@@](O)(C(=O)CO)C[C@@H]3O[C@H]1C[C@H](N)[C@H](O)[C@H](C)O1 [doxorubicin],0.063
3,NC(=O)NO [hydroxyurea],500
4,O=c1[nH]cc(F)c(=O)[nH]1 [5-fluorouracil],1
